Test results from US20260053811A1, “METHODS OF TREATING HYPERTENSION IN OBESE SUBJECTS” (Mineralys Therapeutics, Inc., priority 2022, published 2026).

Tested on: hypertensive subjects
Assay: Seated automated office blood pressure (AOBP) in randomized, placebo-controlled, dose-ranging study
Assay type: in vivo, human
Conditions: Part 1
Procedure: A randomized, double-blinded, placebo-controlled, dose-ranging, multicenter study was conducted to evaluate the effect of orally administered Compound A HBr on blood pressure for the treatment of hypertension in male and female subjects ≥18 years of age.
The study consists of two parts. For enrollment into Part 1 of the study, a subject's value of plasma renin activity (PRA) must be ≤1 ng/mL/h based on morning measurement. If the value of PRA >1 ng/mL/h based on morning measurement, then subjects may be eligible to enter Part 2 of the study.
For Part 1, 163 enrolled subjects ≥18 years of age were randomized into 6 equal treatment groups (1:1:1:1:1:1) to 12.5 mg BID, 25 mg BID, 12.5 mg QD, 50 mg QD, 100 mg QD, or placebo. After a review of interim clinical data, the 2 lowest dose levels (12.5 mg QD and 12.5 mg BID) were stopped for future randomization due to a lack of consistent meaningful reduction of blood pressure, but the patients randomized to that point remained in the study through completion. Thus, after the review of interim clinical data, subjects were randomized into 4 equal treatment groups (1:1:1:1) to 25 mg BID, 50 mg QD, 100 mg QD, or placebo.
For Part 2, 36 enrolled subjects ≥18 years of age were randomized (5:1) to either 100 mg QD Compound A HBr or placebo such that the Compound A HBr treatment group consisted of approximately 30 subjects and the placebo treatment group will consist of approximately 6 subjects.
Subjects orally administered the assigned study drug (Compound A HBr or placebo) according to the assigned dosing regimen for 8 weeks beginning on Study Day 1. All subjects in Part 1 (regardless of dosing group) received BID dosing to preserve the integrity of the blind; active drug is administered as the morning dose for all QD dose groups. Subjects returned to the research facility or were seen by the clinical investigator or approved home health care professional at the end of Study Weeks 1, 2, 3, 4, 5, 6, 7, and 8 (±2 days) for protocol-defined efficacy and safety assessments and procedures, assessment of adverse events (AEs), and confirmation of compliance with study drug usage. Subjects also completed a telephone visit and blood pressure (BP) check at home approximately 3 days post last dose of study drug. Subjects attended up to 14 full clinic visits, including a pre-Screening visit, a Screening/start of Placebo Run-in visit, a second visit during Placebo Run-in, a clinic visit to initiate the ABPM procedure, a Randomization visit, 8 weekly visits during double-blind treatment, and an end-of-study visit scheduled 4 weeks after the last study treatment for final efficacy and safety assessments.
An automated oscillometric sphygmomanometer device was used to measure the subjects' systolic and diastolic blood pressure in office after approximately 5 minutes of rest in the seated position.
The primary endpoint is the change in office-measured (mean of last 2 of 5 unattended measurements using an automated oscillometric sphygmomanometer device after approximately 5 minutes of rest in the seated position) systolic blood pressure (SBP) from baseline to the end of Study Week 8.
Secondary endpoints of this study were: • (a) Change in 24-hour ambulatory blood pressure monitoring (ABPM) parameters (systolic and diastolic) from baseline to the end of Study Week 7. • (b) Change in office-measured SBP from baseline to the end of Study Weeks 1, 2, 3, 4, 5, 6, and 7. • (c) Change in office-measured diastolic blood pressure (DBP) from baseline to the end of Study Weeks 1, 2, 3, 4, 5, 6, 7, and 8. • (d) Proportion of subjects who achieve office-measured BP of ≤130/80 mm Hg by the end of Study Week 8.

[1] = 50 mg QD, Systolic Blood Pressure Tertile at Baseline High
[2] = 50 mg QD, Systolic Blood Pressure Tertile at Baseline Low
[3] = 50 mg QD, Systolic Blood Pressure Tertile at Baseline Middle
[4] = 50 mg QD, Thiazide Diuretic Use at Baseline No
[5] = 50 mg QD, Thiazide Diuretic Use at Baseline Yes

## CC(=O)N[C@H]1CC[C@H](NC(=O)CN2CCN(c3nncc(-c4ccc(C)cc4)n3)CC2)CC1 [Compound A HBr]
50 mg QD, Seated SBP Tertile Middle
  Mean (SD) Change from Baseline at Week 8 in Automated Office-Measured Diastolic Blood Pressure: −10.63 (7.25) mmHg
50 mg QD, Sex Female
  Mean (SD) Automated Office-Measured Diastolic Blood Pressure at Wk 8: 75.67 (12.10) mmHg
  Mean (SD) Automated Office-Measured Systolic Blood Pressure at Wk 8: 125.67 (11.97) mmHg
  Mean (SD) Change from Baseline at Week 8 in Automated Office-Measured Diastolic Blood Pressure: −9.20 (10.37) mmHg
  Mean (SD) Change from Baseline at Week 8 in Automated Office-Measured Systolic Blood Pressure: −15.97 (18.44) mmHg
50 mg QD, Sex Male
  Mean (SD) Automated Office-Measured Diastolic Blood Pressure at Wk 8: 78.15 (6.52) mmHg
  Mean (SD) Change from Baseline at Week 8 in Automated Office-Measured Diastolic Blood Pressure: −6.73 (7.65) mmHg
  Mean (SD) Change from Baseline at Week 8 in Automated Office-Measured Systolic Blood Pressure: −9.96 (15.67) mmHg
[1]
  Mean (SD) Automated Office-Measured Systolic Blood Pressure at Wk 8: 127.25 (17.59) mmHg
  Mean (SD) Change from Baseline at Week 8 in Automated Office-Measured Systolic Blood Pressure: −29.25 (14.31) mmHg
[2]
  Mean (SD) Automated Office-Measured Systolic Blood Pressure at Wk 8: 130.25 (12.04) mmHg
  Mean (SD) Change from Baseline at Week 8 in Automated Office-Measured Systolic Blood Pressure: −2.58 (12.54) mmHg
[3]
  Mean (SD) Automated Office-Measured Systolic Blood Pressure at Wk 8: 127.63 (13.35) mmHg
  Mean (SD) Change from Baseline at Week 8 in Automated Office-Measured Systolic Blood Pressure: −13.00 (14.05) mmHg
[4]
  Automated Office-Measured Diastolic Blood Pressure, Week 8, Mean (SD): 78.00 (6.42) mmHg
  Mean (SD) Automated Office-Measured Systolic Blood Pressure at Wk 8: 130.00 (13.65) mmHg
  Mean (SD) Change from Baseline at Week 8 in Automated Office-Measured Diastolic Blood Pressure: −4.71 (7.77) mmHg
  Mean (SD) Change from Baseline at Week 8 in Automated Office-Measured Systolic Blood Pressure: −7.67 (15.11) mmHg
[5]
  Automated Office-Measured Diastolic Blood Pressure, Week 8, Mean (SD): 75.94 (11.89) mmHg
  Mean (SD) Automated Office-Measured Systolic Blood Pressure at Wk 8: 127.63 (14.08) mmHg
  Mean (SD) Change from Baseline at Week 8 in Automated Office-Measured Diastolic Blood Pressure: −10.56 (9.49) mmHg
  Mean (SD) Change from Baseline at Week 8 in Automated Office-Measured Systolic Blood Pressure: −17.31 (17.91) mmHg
100 mg QD, ACEi/ARB No
  Mean (SD) Automated Office-Measured Systolic Blood Pressure at Wk 8: 116.80 (7.19) mmHg
  Mean (SD) Change from Baseline at Week 8 in Automated Office-Measured Systolic Blood Pressure: −23.70 (8.89) mmHg
100 mg QD, ACEi/ARB Yes
  Mean (SD) Automated Office-Measured Systolic Blood Pressure at Wk 8: 134.90 (13.12) mmHg
  Mean (SD) Change from Baseline at Week 8 in Automated Office-Measured Systolic Blood Pressure: −11.68 (13.23) mmHg
100 mg QD, ACEi/ARBs No
  Mean (SD) Automated Office-Measured Diastolic Blood Pressure at Wk 8: 71.40 (10.62) mmHg
  Mean (SD) Change from Baseline at Week 8 in Automated Office-Measured Diastolic Blood Pressure: −9.00 (6.21) mmHg
100 mg QD, ACEi/ARBs Yes
  Mean (SD) Automated Office-Measured Diastolic Blood Pressure at Wk 8: 73.40 (9.37) mmHg
  Mean (SD) Change from Baseline at Week 8 in Automated Office-Measured Diastolic Blood Pressure: −4.58 (8.10) mmHg
100 mg QD, AHTs 2
  Mean (SD) Automated Office-Measured Diastolic Blood Pressure at Wk 8: 74.09 (4.66) mmHg
  Mean (SD) Automated Office-Measured Systolic Blood Pressure at Wk 8: 124.82 (13.25) mmHg
  Mean (SD) Change from Baseline at Week 8 in Automated Office-Measured Diastolic Blood Pressure: −8.09 (8.81) mmHg
  Mean (SD) Change from Baseline at Week 8 in Automated Office-Measured Systolic Blood Pressure: −17.95 (15.83) mmHg
100 mg QD, AHTs ≥3
  Mean (SD) Automated Office-Measured Diastolic Blood Pressure at Wk 8: 72.14 (12.08) mmHg
  Mean (SD) Automated Office-Measured Systolic Blood Pressure at Wk 8: 136.36 (13.05) mmHg
  Mean (SD) Change from Baseline at Week 8 in Automated Office-Measured Diastolic Blood Pressure: −3.39 (6.60) mmHg
  Mean (SD) Change from Baseline at Week 8 in Automated Office-Measured Systolic Blood Pressure: −11.04 (10.45) mmHg
100 mg QD, Age 65-79 yr
  Mean (SD) Automated Office-Measured Diastolic Blood Pressure at Wk 8: 72.80 (7.89) mmHg
  Mean (SD) Automated Office-Measured Systolic Blood Pressure at Wk 8: 133.73 (12.53) mmHg
  Mean (SD) Change from Baseline at Week 8 in Automated Office-Measured Diastolic Blood Pressure: −4.37 (7.01) mmHg
  Mean (SD) Change from Baseline at Week 8 in Automated Office-Measured Systolic Blood Pressure: −9.53 (11.49) mmHg
100 mg QD, Age <65 yr
  Mean (SD) Automated Office-Measured Diastolic Blood Pressure at Wk 8: 78.33 (9.69) mmHg
  Mean (SD) Automated Office-Measured Systolic Blood Pressure at Wk 8: 129.33 (20.63) mmHg
  Mean (SD) Change from Baseline at Week 8 in Automated Office-Measured Diastolic Blood Pressure: −8.67 (10.16) mmHg
  Mean (SD) Change from Baseline at Week 8 in Automated Office-Measured Systolic Blood Pressure: −22.75 (14.75) mmHg
